Results taken from the NIST ThermoML archive (doi:10.1021/je200721d).

Test: xn = mol fraction of the nth substance listed
Settings: Liquid, Vibrating tube method

CCCCCCCC [octane] + CCCCCC
Settings | mass density [kg/m3]
313.14 K, 18000 kPa, x2 = 0.1654 | 697.47
313.14 K, 18000 kPa, x2 = 0.5749 | 683.06
313.14 K, 18000 kPa, x2 = 0.7995 | 672.32
313.14 K, 18000 kPa, x2 = 0.9308 | 665.28
313.14 K, 19000 kPa, x2 = 0.1654 | 698.27
313.14 K, 19000 kPa, x2 = 0.5749 | 683.89
313.14 K, 19000 kPa, x2 = 0.7995 | 673.21
313.14 K, 19000 kPa, x2 = 0.9308 | 666.2
313.14 K, 20000 kPa, x2 = 0.1654 | 699.05
313.14 K, 20000 kPa, x2 = 0.5749 | 684.72
313.14 K, 20000 kPa, x2 = 0.7995 | 674.07
313.14 K, 20000 kPa, x2 = 0.9308 | 667.1
313.14 K, 21000 kPa, x2 = 0.1654 | 699.81
313.14 K, 21000 kPa, x2 = 0.5749 | 685.52
313.14 K, 21000 kPa, x2 = 0.7995 | 674.92
313.14 K, 21000 kPa, x2 = 0.9308 | 667.97
313.14 K, 22000 kPa, x2 = 0.1654 | 700.55
313.14 K, 22000 kPa, x2 = 0.5749 | 686.32
313.14 K, 22000 kPa, x2 = 0.7995 | 675.74
313.14 K, 22000 kPa, x2 = 0.9308 | 668.8
313.14 K, 23000 kPa, x2 = 0.1654 | 701.28
313.14 K, 23000 kPa, x2 = 0.5749 | 687.1
313.14 K, 23000 kPa, x2 = 0.7995 | 676.52
313.14 K, 23000 kPa, x2 = 0.9308 | 669.6
313.14 K, 24000 kPa, x2 = 0.1654 | 701.98
313.14 K, 24000 kPa, x2 = 0.5749 | 687.85
313.14 K, 24000 kPa, x2 = 0.7995 | 677.27
313.14 K, 24000 kPa, x2 = 0.9308 | 670.36
313.14 K, 25000 kPa, x2 = 0.1654 | 702.7
313.14 K, 25000 kPa, x2 = 0.5749 | 688.59
313.14 K, 25000 kPa, x2 = 0.7995 | 677.99
313.14 K, 25000 kPa, x2 = 0.9308 | 671.1
323.06 K, 1000 kPa, x2 = 0.5749 | 658.22
323.06 K, 2000 kPa, x2 = 0.5749 | 659.25
323.06 K, 3000 kPa, x2 = 0.5749 | 660.31
323.06 K, 4000 kPa, x2 = 0.5749 | 661.34
323.06 K, 5000 kPa, x2 = 0.5749 | 662.42
323.06 K, 6000 kPa, x2 = 0.5749 | 663.46
323.06 K, 7000 kPa, x2 = 0.5749 | 664.53
323.06 K, 8000 kPa, x2 = 0.5749 | 665.61
323.06 K, 9000 kPa, x2 = 0.5749 | 666.67
323.06 K, 10000 kPa, x2 = 0.5749 | 667.73
323.06 K, 11000 kPa, x2 = 0.5749 | 668.78
323.06 K, 12000 kPa, x2 = 0.5749 | 669.81
323.06 K, 13000 kPa, x2 = 0.5749 | 670.83
323.06 K, 14000 kPa, x2 = 0.5749 | 671.84
323.06 K, 15000 kPa, x2 = 0.5749 | 672.81
323.06 K, 16000 kPa, x2 = 0.5749 | 673.78
323.06 K, 17000 kPa, x2 = 0.5749 | 674.72
323.06 K, 18000 kPa, x2 = 0.5749 | 675.63
323.06 K, 19000 kPa, x2 = 0.5749 | 676.52
323.06 K, 20000 kPa, x2 = 0.5749 | 677.38
323.06 K, 21000 kPa, x2 = 0.5749 | 678.25
323.06 K, 22000 kPa, x2 = 0.5749 | 679.1
323.06 K, 23000 kPa, x2 = 0.5749 | 679.9
323.06 K, 24000 kPa, x2 = 0.5749 | 680.71
323.06 K, 25000 kPa, x2 = 0.5749 | 681.47
323.07 K, 1000 kPa, x2 = 0.2199 | 672.17
323.07 K, 2000 kPa, x2 = 0.2199 | 673.14
323.07 K, 3000 kPa, x2 = 0.2199 | 674.14
323.07 K, 4000 kPa, x2 = 0.2199 | 675.13
323.07 K, 5000 kPa, x2 = 0.2199 | 676.14
323.07 K, 6000 kPa, x2 = 0.2199 | 677.12
323.07 K, 7000 kPa, x2 = 0.2199 | 678.12
323.07 K, 8000 kPa, x2 = 0.2199 | 679.13
323.07 K, 9000 kPa, x2 = 0.2199 | 680.12
323.07 K, 10000 kPa, x2 = 0.2199 | 681.12
323.07 K, 11000 kPa, x2 = 0.2199 | 682.09
323.07 K, 12000 kPa, x2 = 0.2199 | 683.06
323.07 K, 13000 kPa, x2 = 0.2199 | 684.02
323.07 K, 14000 kPa, x2 = 0.2199 | 684.97
323.07 K, 15000 kPa, x2 = 0.2199 | 685.89
323.07 K, 16000 kPa, x2 = 0.2199 | 686.79
323.07 K, 17000 kPa, x2 = 0.2199 | 687.68
323.07 K, 18000 kPa, x2 = 0.2199 | 688.54
323.07 K, 19000 kPa, x2 = 0.2199 | 689.38
323.07 K, 20000 kPa, x2 = 0.2199 | 690.21
323.07 K, 21000 kPa, x2 = 0.2199 | 691.03
323.07 K, 22000 kPa, x2 = 0.2199 | 691.83
323.07 K, 23000 kPa, x2 = 0.2199 | 692.58
323.07 K, 24000 kPa, x2 = 0.2199 | 693.35
323.07 K, 25000 kPa, x2 = 0.2199 | 694.1
323.08 K, 1000 kPa, x2 = 0.1654 | 674.04
323.08 K, 2000 kPa, x2 = 0.1654 | 675.02
323.08 K, 3000 kPa, x2 = 0.1654 | 676
323.08 K, 4000 kPa, x2 = 0.1654 | 676.97
323.08 K, 5000 kPa, x2 = 0.1654 | 677.97
323.08 K, 6000 kPa, x2 = 0.1654 | 678.97
323.08 K, 7000 kPa, x2 = 0.1654 | 679.95
323.08 K, 8000 kPa, x2 = 0.1654 | 680.93
323.08 K, 9000 kPa, x2 = 0.1654 | 681.93
323.08 K, 10000 kPa, x2 = 0.1654 | 682.9
323.08 K, 11000 kPa, x2 = 0.1654 | 683.88
323.08 K, 12000 kPa, x2 = 0.1654 | 684.84
